What was measured:
[1] = Cytotoxicity against Chlorocebus aethiops (African green monkey) Vero cells assessed as concentration at which cell growth as in negative control after 48 hr by hemocytometer; type: cell-based; details: chlorocebus sabaeus, read-out: Activity
[2] = Cytotoxicity against Homo sapiens (human) Hep2 cells assessed as concentration at which cell growth as in negative control after 48 hr by hemocytometer; type: cell-based; details: HEp-2 cells, read-out: Activity
Giardia intestinalis = assay: Antiparasitic activity against Giardia intestinalis WB strain ATCC 30957 using trypan blue staining by hemocytometer; type: functional, organism-based; details: Giardia duodenalis
Entamoeba histolytica = assay: Antiparasitic activity against Entamoeba histolytica HK-9 strain ATCC 30015 using trypan blue staining by hemocytometer; type: functional, organism-based

COC(=O)[C@H](CC(=O)O)NC(=O)Cn1c([N+](=O)[O-])cnc1C
MNTC at 48 h [1]: 314 µM
MNTC at 48 h [2]: 304 µM
IC50 (Giardia intestinalis): 2.26 µM
IC50 (Entamoeba histolytica): 2.21 µM

COC(=O)[C@H](Cc1ccc(O)cc1)NC(=O)Cn1c([N+](=O)[O-])cnc1C
IC50 (Giardia intestinalis): 17.8 µM
IC50 (Entamoeba histolytica): 18.3 µM

COC(=O)[C@H](Cc1c[nH]c2ccccc12)NC(=O)Cn1c([N+](=O)[O-])cnc1C
IC50 (Giardia intestinalis): 16.6 µM
IC50 (Entamoeba histolytica): 8.29 µM

COC(=O)[C@H](Cc1cnc[nH]1)NC(=O)Cn1c([N+](=O)[O-])cnc1C
IC50 (Giardia intestinalis): 8.93 µM
IC50 (Entamoeba histolytica): 8.91 µM

COC(=O)[C@@H]1CCCN1C(=O)Cn1c([N+](=O)[O-])cnc1C
MNTC at 48 h [1]: 204 µM
MNTC at 48 h [2]: 169 µM
IC50 (Giardia intestinalis): 2.7 µM
IC50 (Entamoeba histolytica): 2.54 µM

CCOC(=O)C(CCCCNC(=O)Cn1c([N+](=O)[O-])cnc1C)NC(=O)Cn1c([N+](=O)[O-])cnc1C (configuration not stated)
IC50 (Giardia intestinalis): 3.84 µM
IC50 (Entamoeba histolytica): 3.95 µM

Cc1ncc([N+](=O)[O-])n1CC(=O)N[C@@H](Cc1ccccc1)C(=O)O
IC50 (Giardia intestinalis): 22.2 µM
IC50 (Entamoeba histolytica): 23.4 µM

Cc1ncc([N+](=O)[O-])n1CC(=O)N[C@@H](Cc1c[nH]c2ccccc12)C(=O)O
IC50 (Giardia intestinalis): 18 µM
IC50 (Entamoeba histolytica): 17.2 µM

Cc1ncc([N+](=O)[O-])n1CC(=O)N[C@@H](Cc1cnc[nH]1)C(=O)O
IC50 (Giardia intestinalis): 17.2 µM
IC50 (Entamoeba histolytica): 16.2 µM

CCOC(=O)[C@H](C)NC(=O)Cn1c([N+](=O)[O-])cnc1C
MNTC at 48 h [1]: 72.2 µM
MNTC at 48 h [2]: 69.7 µM
IC50 (Giardia intestinalis): 2.18 µM
IC50 (Entamoeba histolytica): 2.1 µM

COC(=O)[C@H](Cc1ccccc1)NC(=O)Cn1c([N+](=O)[O-])cnc1C
IC50 (Giardia intestinalis): 44.4 µM
IC50 (Entamoeba histolytica): 22.1 µM

Cc1ncc([N+](=O)[O-])n1CCO [METRONIDAZOLE]
MNTC at 48 h [1]: 903 µM
MNTC at 48 h [2]: 869 µM
IC50 (Giardia intestinalis): 5.17 µM
IC50 (Entamoeba histolytica): 4.4 µM

Source: ChEMBL document CHEMBL3046306, “Synthesis of new compounds derived from metronidazole and amino acids and their esters as antiparasitic agents” (Med Chem Res, 2012)
